Experimental data reported in PubChem BioAssay AID179 (DTP/NCI, 2004).
The source made the active and inactive calls.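 Rule for the calls: active = compounds giving half or more protection of infected cells from virus-caused growth loss, again on retest; inactive = the rest.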 Where a SMILES comes first, the peptide text is derived from it. [ ]: non-standard residue; d: D form. The star is where a group is joined. NMeAc5c = CNC1(C(=O)O)CCCC1; Boc = CC(C)(C)OC(=O)*; OBn = c1ccc(CO*)cc1

Test system: CEM cells HIV-1 protection, formazan growth assay
Test: NCI AIDS Antiviral Assay
Settings: for IC50: measured here: growth of uninfected CEM cells
Summary of the method: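 Human CEM cells, uninfected and HIV-1-infected, received five drug concentrations, and growth was read by soluble formazan assay. Compounds giving at least 50% protection were retested; reproducible 100% protection defined confirmed active.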

Structure (SMILES) | EC50 | IC50 | outcome
CC(Cn1c2c(c3cc(O)ccc31)CCc1ccc(O)cc1-2)N(C)C (stereo not drawn) | > 200 µM | 12 µM | 
O=C(Nc1nc2ccc(Cl)cc2[nH]1)c1ccccc1O | > 200 µM | 12 µM | 
CCOC(=O)C1(C(=O)OCC)C=C(c2ccccc2)N(C2OC(COC(C)=O)C(OC(C)=O)C(OC(C)=O)C2OC(C)=O)C1=S (stereo not drawn) | > 200 µM | 24.5 µM | 
CCOC(=O)CCNC(=O)Sc1ccccc1C(=O)NCCC(N)=O | 1.2 µM | 110 µM | 
OC(c1cccs1)c1cc2ccccc2s1 (stereo not drawn) | > 200 µM | 117 µM | 
O=C1C2=C(SCCS2)C(=O)c2c(Sc3ccc(Cl)cc3)c(Sc3ccc(Cl)cc3)c(Sc3ccc(Cl)cc3)c(Sc3ccc(Cl)cc3)c21 | > 151 µM | > 151 µM | 
CC(C)=COS(=O)(=O)C(F)(F)F | > 200 µM | 110 µM | 
NC(=S)N/N=C1\c2ccccc2CCC1CCC1(O)CCc2ccccc2C1=O (stereo not drawn) | > 200 µM | 31.6 µM | 
COc1ccc2ncc(COC(=O)NC3CCCCC3)c(COC(=O)NC3CCCCC3)c2c1 | > 174 µM | 40.7 µM | 
O=C1CN(C(=O)C2CCCN2C(=O)C2CCCN2)C(=O)CN1 (stereo not drawn) | > 200 µM | > 200 µM | 
CCCCCC=C(c1cc(Cl)c(OC)c(C(=O)OCCC)c1)c1cc(Cl)c(OC)c(C(=O)OCCC)c1 | > 12.3 µM | > 12.3 µM | 
O=C1OC(=O)C2CC3C(CC12)C1(Cl)C(Cl)=C(Cl)C3(Cl)C1(Cl)Cl (stereo not drawn) | > 200 µM | 6.61 µM | 
O=C1OCC2=C1C(c1ccc(Cl)cc1)c1cc3c(cc1O2)OCO3 (stereo not drawn) | > 200 µM | 3.98 µM | 
O/N=C1/CCCCC1NO (stereo not drawn) | > 200 µM | 117 µM | 
CCOP(=O)(OCC)C(N)Cc1ccc(OC)c(OC)c1 (stereo not drawn) | > 200 µM | > 200 µM | 
NC(=O)N/N=C1/CCCCC1c1ccccc1 (stereo not drawn) | > 407 µM | > 407 µM | 
O=C(O)C1CCCCC1c1c2ccc(=O)c(O)c-2oc2c(O)c(O)ccc12 (stereo not drawn) | 17 µM | 83.2 µM | 
CN(C)/C=N\c1nncc2[nH]cnc12 | > 200 µM | 15.1 µM | 
C/C(=N\OC(=O)Nc1cccc(Cl)c1)c1ccccc1 | > 200 µM | 32.4 µM | 
Cc1cn(C2CC(Br)C(COC(c3ccccc3)(c3ccccc3)c3ccccc3)O2)c(=O)[nH]c1=O (stereo not drawn) | > 200 µM | 13.8 µM | 
CCOC(=O)C1CCCC1S(=O)(=O)c1ccc(C)cc1 (stereo not drawn) | > 200 µM | > 200 µM | 

Structure (SMILES) | EC50 | IC50 | outcome
C=CCC(CC(CC=C)C(=O)O)C(=O)O (stereo not drawn) | > 1170 µM | > 1170 µM | 
CN(C(=O)C(Cc1ccccc1)NC(=O)OC(C)(C)C)C1(C(=O)NC(Cc2ccccc2)C(=O)OCc2ccccc2)CCCC1 (stereo not drawn) (Boc-Phe-[NMeAc5c]-Phe-OBn; configuration not given here) | > 200 µM | 11 µM | 
CSC1(Cc2ccccn2)C(=O)Nc2cccc([N+](=O)[O-])c21 (stereo not drawn) | > 200 µM | 31.6 µM | 
COc1ccc(CCNC(=S)/N=C/C2=C(O)CC(C)(C)CC2=O)cc1OC | > 200 µM | > 200 µM | 
COc1cc2c(c(O)c1OC)C(O)C1CCC(=O)N1C2c1cccc2ccccc12 (stereo not drawn) | > 200 µM | 52.5 µM | 
O=[N+]([O-])c1ccc(S(=O)(=O)N/N=C/c2cccc3ccccc23)cc1 | > 51.3 µM | > 51.3 µM | 
O=C(O)c1cc(O)cc(O)c1CNc1ccc(/C=C\c2ccc(NCc3c(O)cc(O)cc3C(=O)O)cc2S(=O)(=O)O)c(S(=O)(=O)O)c1 | > 87.1 µM | > 87.1 µM | 
CCO[C@@]12CCC3CC4CC[C@@](OCC)(O1)C4C32 (stereo partly drawn) | > 200 µM | > 200 µM | 
CCC(C#N)N(Cc1cccc(CN(C(C)=O)C(C#N)CC)c1)C(C)=O (stereo not drawn) | > 200 µM | 191 µM | 
COC(=O)c1cc(C)ccc1CC(Cc1ccccc1C)C(=O)OC (stereo not drawn) | > 200 µM | 37.2 µM | 
N#C/C(=C\c1cc(O)c(O)c(I)c1)C(=O)NCCCc1ccccc1 | > 200 µM | 9.55 µM | 
Cc1ccc(-n2cc(-c3ccc(Cl)cc3)c3c2N=CN2NC(c4ccco4)=NC32)cc1 (stereo not drawn) | > 100 µM | 74.1 µM | 
O=[N+]([O-])c1ccc(C2ON=C(c3ccccc3)N2C23CC4CC(CC(C4)C2)C3)cc1 (stereo not drawn) | > 200 µM | 186 µM | 
O=C(Nc1nc(C23CC4CC(CC(C4)C2)C3)cs1)c1cc2c(ccc3ccccc32)oc1=O | > 200 µM | > 200 µM | 
COc1cc(/C=C/C(=O)c2sc(NNC(C)=O)nc2C)ccc1O | > 20.9 µM | > 20.9 µM | 
[N-]=[N+]=NC1C2CC3CC(C2)CC1C3 (stereo not drawn) | > 77.6 µM | > 77.6 µM | 
CCCCN(CC)C(=O)C(=O)C1C(=O)Nc2ccccc2S1=O (stereo not drawn) | > 204 µM | > 204 µM | 
Cn1cnc(N2CCCC2)c(C#N)c1=O | > 200 µM | > 200 µM | 
O=C(O)c1cc(CC2Cc3cc4c(cc3C2=O)CCC4)cc2c1CCC2 (stereo not drawn) | > 200 µM | 53.7 µM | 
Nc1ccc(/C=C/c2ccc(NCc3c(O)cc(O)cc3C(=O)O)cc2S(=O)(=O)O)c(S(=O)(=O)O)c1 | 107 µM | > 200 µM | 
COc1nc(N)c(N=CC(OC(C)=O)C(OC(C)=O)C(COC(C)=O)OC(C)=O)c(=O)n1C (stereo not drawn) | > 200 µM |  | 

Structure (SMILES) | EC50 | IC50 | outcome
CCN1C(=O)CS/C1=N/NC(=O)C(O)(c1ccccc1)C1C=CC=CC1 (stereo not drawn) | > 200 µM | > 200 µM | 
CC(C)N(C(=O)C12C3C4C1C1C2C3C41C(N)=O)C(C)C (stereo not drawn) | > 912 µM | > 912 µM | 
C=C1C(=O)SC(=NCc2ccccc2)N1C | > 204 µM | 132 µM | 
CCC1=CCC(P(=O)(c2ccccc2)c2ccccc2)CC1C (stereo not drawn) | > 11.5 µM | > 11.5 µM | 
CN1C(=S)CSc2ccccc21 | > 182 µM | > 182 µM | 
NC1=Nc2ccccc2Sc2ccccc21 | > 60.3 µM | > 60.3 µM | 
CSc1c(C(=O)Nc2ccc(C)cc2)c(N)n(N)c(=O)c1C#N | 100 µM | 151 µM | 
CN1C(=O)CC(CC(=O)C2CCCCC2=O)CC1=O (stereo not drawn) | > 200 µM | > 200 µM | 
C=CCC(C(=O)NC(N)=O)c1ccccc1 (stereo not drawn) | > 832 µM | 617 µM | 
COc1cc2c(cc1O)Cc1c-2[n+](C)cc2cc(OC)c(OC)cc12 | > 347 µM | 1.62 µM | 
Cc1ccc(C)c(N=C2NC(=O)C(CC(=O)Nc3ccc(Cl)cc3Cl)S2)c1 (stereo not drawn) | > 44.7 µM | 19.5 µM | 
O=C1C=C(Nc2ccccc2C(=O)CC(=O)C(=O)Nc2cccc(C(F)(F)F)c2)c2ccccc2C1=O | > 37.2 µM | 6.61 µM | 
CC(=O)OCCCCn1cnc2c(Cl)nc(Nc3ccccc3)nc21 | > 200 µM | > 200 µM | 
CN1C(=O)C(O)C[C@@H]1c1ccc(F)cc1 (stereo partly drawn) |  |  | inactive
O=c1c2cc([N+](=O)[O-])ccc2[nH]n1Cc1ccccc1Cl | > 200 µM | 41.7 µM | 
CCC1Sc2cc(OC)cc(NC=O)c2NC1=O (stereo not drawn) | 174 µM | > 200 µM | 
Cc1cc2c(C(C)C)c(O)c(O)c(C=NCCO)c2c(O)c1-c1c(C)cc2c(C(C)C)c(O)c(O)c(C=NCCO)c2c1O |  |  | inactive
CCCCCCNC(=O)/C(=C\c1ccc(Cl)cc1Cl)NC(=O)c1ccccc1 | > 200 µM | > 200 µM | 
c1ccc(C2=NN3CN(N2)c2ccccc2OCCCOc2ccccc23)cc1 | > 200 µM | 105 µM | 
N#Cc1c(C#N)c(-c2ccccc2)n(/N=C\c2ccccc2)c1N | > 200 µM | 14.5 µM | 
CC(=O)N=C1N(/C=C2\C(=O)Oc3ccccc3C2=O)C(=O)/C(=C/c2cccc(Cl)c2Cl)N1C | > 200 µM | 26.3 µM | 
